These results are taken from patent publication US8048872B2, “Treatment of hyperproliferative diseases with vinca alkaloid N-oxide and analogs” (Stat of Oregon Acting by and Through The Oregon State Board …, priority 2006, dated 2011).

A word on the IC50: it is the point on the concentration scale where inhibition reaches its midpoint.

Data set [1] is described as follows: Formation of clear solution in aqueous vehicles. In kind it is physicochemical. The conditions noted are these: de-ionized water and 5% dextrose/water solutions.
For data set [2] the following is noted: cited from earlier work.
Data set [3] in a line: in vivo. To be noted: female, nude, mouse, iv. Here is the method:
In one example, female nude mice (n=10) were inoculated subcutaneously with 15×10^6 human K562 myelogenous leukemia cells in a 1:1 ratio with matrigel on the right flank. Tumor volumes were monitored and calculated using the formula: Tumor volume=(a^2×b/2) where ‘a’ is the smallest diameter and ‘b’ is the largest diameter. Once the established tumors reached approximately 75-150 mm^3 (individual tumor volumes may range from […]) the mice were assigned to the various vehicle control and treatment groups such that the mean tumor volumes in the treated groups were within 10% of the mean tumor weight in the vehicle control group. On the same day (day 1) and days 4, 7, 10, and 13, vinca-alkaloid N-oxide analogs (VCR-NO, VBL-NO) were administered intravenously according to a q3d×5 schedule. Mice were also treated with vehicle (negative control) and the standard agents, vinblastine and vincristine (positive controls). Tumor volumes were recorded three times a week starting when tumors were palpable and including the day of study termination. Animals were monitored for signs of toxicity and body weights were recorded twice a week starting on the first day of treatment and including the day of study termination. […] The mean day of sacrifice were calculated to determine the tumor growth delay and tumor growth inhibition effects of each test article as compared to vehicle control. […] Statistical significance between the treated vs. control groups was evaluated by logrank analysis.

Data set [4] in a line: in vivo. To be noted: B6D2F1, mouse, in vivo, iv. Here is the method: (§1) For example, B6D2F1 mice (n=8/group) were inoculated subcutaneously (sc) in the right flank with 1×10^6 murine L1210 leukemic tumor cells. […] Test agents were administered on multiple treatment regimen (q3d×5) to yield optimal dose schedule benefit. Vehicle control treated mice served as the negative control group; mice treated with the bioreduced parent compounds, vincristine and vinblastine, dosed at their […] (MTDs), served as the positive control groups. Tumors were measured with calipers twice weekly and tumor volume calculated using the formula: Tumor Volume (mm^3)=((width)^2×length)/2. Animals were monitored for signs of toxicity and weighed daily for the first 5 days of the study and then twice-weekly until the study end. As pre-defined in the protocol, each animal was actively euthanized when its tumor reached the pre-determined endpoint size of 2000 mm^3 or at the conclusion of the study (day 37) whichever came first. The time to endpoint (TTE) was calculated for each mouse as TTE (days)=(log10(endpoint volume mm^3)−b)/m where b is the intercept and m is the slope of the line obtained by linear regression of a log-transformed tumor growth data set. Treatment outcome was determined from tumor growth delay (TGD) which is defined as the increase in median TTE in a treatment (T) group as compared to the control (C) group (TGD=T−C) expressed in days or as a percentage of the median TTE of the control group % TGD=((T−C)/C)×100. […] Statistical significance between the treated vs. control groups was evaluated by logrank analysis.

For data set [5], the system named is murine L1210 leukemic tumor cells. As to the kind of experiment: in vivo. To be noted: L1210; 5 mg/kg i.v. q3d×5. Here is the method: as §1
Data set [6] relates to human H460 lung adenocarcinoma. As to the kind of experiment: cells. The conditions noted are these: NCI-H460, 14 h.
Description: (§2) Tumor cell line were cultured in DMEM-10% FBS under standard conditions. One-hundred mm plastic culture dishes were seeded with 1×10^6 tumor cells and treated with vinca alkaloids or N-oxide analogs at a dose range of 0.01-100 nM. Cells were exposed with gentle rocking to a constant level of low oxygen (0.2% O2-5% CO2-balance N2) in a hypoxia apparatus (INVIVO2400 Hypoxia Workstation, Ruskin Technology) for 14 hr at 37° C. Identically treated cells were incubated under normoxia (air-5% CO2) at 37° C. Cells were harvested and replated in fresh medium at a density of 1×10^3 cells/well in 48-well plastic culture plates to assess viability 24-72 hr later. Briefly, Alamar Blue was added to replicate wells on Day 0 and Day 3, and cells were incubated for a further 3-6 hr at 37° C. before fluorescence readings using a plate reader (530-560 nm excitation, 590 emission). The percent inhibition of proliferation was calculated and plotted against control-treated cells at each drug concentration. […] The Hypoxia Cytotoxicity Ratio (HCR) was determined as the ratio of the IC50 of the compound under normoxic conditions vs. hypoxic conditions.
The test system of data set [7] is human H460 lung adenocarcinoma.
Description: as §2
Data set [8] deals with murine P388 leukemic tumor cells. As to the kind of experiment: in vivo. The conditions noted are these: P388; 5 mg/kg i.v. q3d×5. Here is the method: as §1
This model was developed by subcutaneously inoculating B6D2F1 mice (n=8/group) with 1×10^6 murine P388 leukemic tumor cells using similar methodology to that described above for L1210. […] Agents were administered on multiple treatment regimen (q3d×5) to yield optimal dose schedule benefit. Efficacy of treatment with the N-oxide analogs was determined by Tumor Growth Delay (TGD) and Kaplan-Meier survival analysis as described for L1210, the exception being that the conclusion of the study was day 45 or the predefined endpoint size of 2000 mm^3 whichever came first. Vehicle control treated mice served as the negative control group; mice treated with the standard agents, vincristine and vinblastine, dosed at their MTDs, served as the positive control groups.

[9] abbreviates: non-Hodgkin's lymphoma, 9 mcg/kg/d IV days 1-5, every 21 days.
Where [10] appears, read: non-Hodgkin's lymphoma, 9 or 18 mcg/kg/d IV days 1-5, every 21 days, Grade III-IV.
The mark [11] stands for this setting: non-Hodgkin's lymphoma, 18 mcg/kg/d IV days 1-5, every 21 days.

Like-named read-outs stand apart in the source and are kept apart here.

Vinblastine N-Oxide Dihydrochloride: in data set [1], the “forms a stable clear solution at” value is “about 20 mg/mL”.
On to `Nc1nc(F)nc2c1ncn2[C@@H]1O[C@H](CO)[C@@H](O)[C@@H]1O` [Fludarabine], for which, in data set [2] (Grade III-IV), the Diarrhea entry is “Diarrhea 2%”, the Nausea entry is “Nausea 3%”, the Neuropathy result is given as “Neuropathy 4%” and the Stomatitis entry is given as “Stomatitis 2%”. In addition, the Thrombocytopenia entry in [2] (Grade III-IV) is on record as “Thrombocytopenia 25%”. For the same molecule, the Neutropenia entry in [2] (Grade IV (of cycles)) was “Neutropenia 56%”. Also, the “Febrile Infection During Cycles 1-3” value in [2] (human, in vivo) is recorded as “Cycles 1-3 30%”.
For `CN(C)/N=N/c1[nH]cnc1C(N)=O` [Dacarbazine], in data set [2] (human, in vivo, iv), the “Anemia Grade III-IV” value is reported as “Anemia Grade III-IV 6%”, the “Anemia Grade IV” value was “Anemia Grade IV 1%”, the “Asthenia (Grade III)” value was “Asthenia (Grade III) 1%” and the “Constipation (Grade III)” value is “(Grade III) 3%”. Moreover, in [2] (human, in vivo, iv), the Dyspnea entry is “Dyspnea 1%”, the “Fatigue (Grade III)” value was “Fatigue (Grade III) 2%”, the “Fever (Grade III)” value was “Fever (Grade III) 2%” and the “Headache (Grade III)” value was “Headache (Grade III) 1%”. For the same molecule, in [2] (human, in vivo, iv), the “Leukopenia without neutropenia Grade III” value is reported as “Grade III 1%”, the “Nausea (Grade III)” value is recorded as “Nausea (Grade III) 4%”, the Nausea/Vomiting entry was “Nausea/Vomiting 5%” and the “Pain (Grade III)” value was “Pain (Grade III) 13%”. Moreover, in [2] (human, in vivo, iv), the “Somnolence (Grade III)” value is given as “(Grade III) 1%” and the “Vomiting (Grade III)” value is “Vomiting (Grade III) 4%”.
`Nc1ccn([C@@H]2O[C@H](CO)[C@@H](O)C2(F)F)c(=O)n1` [gemcitabine, reference compound]: in data set [2] (human, in vivo, iv), the Constipation entry is on record as “Constipation 3%”, the “Deep Vein Thrombosis” value is listed as 3%, the Diarrhea result is listed as “Diarrhea 2%” and the Edema result is on record as “Edema 5%”. Besides, in [2] (human, in vivo, iv), the Fever entry was “Fever 3%”, the “Increased Bilirubin” value was “Increased Bilirubin 41%”, the “Neutropenic Fever” value is recorded as “Neutropenic Fever 3%” and the Pain entry is “Pain 2%”. In data set [2] (human, in vivo, iv), the Respiratory entry is “Respiratory 5%”, the “State of Consciousness” value is given as “Consciousness 2%” and the “patients with grade III-IV respiratory toxicity” value is on record as 2 out of 40. For the same molecule, in data set [2] (human, in vivo), the “Anemia Grade III” value is “Anemia Grade III 14.3%”, the Hepatotoxicity result is on record as “(Grade III) 14.3%”, the Infection entry is “(Grade III) 3.6%” and the Leukopenia is given as 10.7%. In [2] (human, in vivo), the “Leukopenia/Neutropenia Toxicity” value is recorded as “Grade III 19%” and the “Skin Rash” value was “(Grade III) 3.6%”.
Take `CC[C@]1(O)C[C@@H]2CN(CCc3c([nH]c4ccccc34)[C@@](C(=O)OC)(c3cc4c(cc3OC)N(C)[C@H]3[C@@](O)(C(=O)OC)[C@H](OC(C)=O)[C@]5(CC)C=CCN6CC[C@]43[C@@H]65)C2)C1` [Vinblastine, vinblastine]: the MTD in the data set “in vivo [3]” was 2.5 mg/kg; in the data set “in vivo [4]”, 5 mg/kg. The results for the “Median Survival” value in [5] and in data set [8] were 24.3 days and 30.8 days, respectively. For the same molecule, the “Tumor Growth Delay” value is listed as 34% in data set [5] and 149% in data set [8]. Also, the results for the IC50 in data set [6] (read-out: IC50 Air) and in data set [6] (read-out: IC50 Hypoxia) were 20 nM and 17 nM, respectively. In addition, the “Hypoxia Cytotoxicity Ratio (HCR)” value in data set [7] was 1. Besides, the “median day of death” value is, setting by setting: (4 mg/kg ip q3d×5) 10.8 days; (6 mg/kg ip q3d×5) 9.8 days.
In the case of `CC[C@@]1(O)C(=O)OCc2c1cc1n(c2=O)Cc2cc3c(CN(C)C)c(O)ccc3nc2-1` [Topotecan], in [2] (human, in vivo, iv), the Anorexia result is “Anorexia 1%”, the Diarrhea entry is “Diarrhea 1%”, the Fatigue entry is “Fatigue 5%” and the “Neutropenic Sepsis” value is recorded as “Neutropenic Sepsis 5%”. In addition, in data set [2] (human, in vivo, iv), the Sepsis entry is “Sepsis 9%”, the “Severe Bleed” value was “Severe Bleed <1%” and the Stomatitis result is listed as “Stomatitis 2%”. Besides, the “Leukopenia/Neutropenia Toxicity” value in data set [2] (human, in vivo) is recorded as “Grade III 15%”.
Turning to `CN(Cc1cnc2nc(N)nc(N)c2n1)c1ccc(C(=O)N[C@@H](CCC(=O)O)C(=O)O)cc1` [Methotrexate], in data set [2] (human, in vivo), the “Hepatotoxicity (Grade III)” value is recorded as 24.4% (all ages) and the “Hepatotoxicity (Grade IV)” value was 2.4% (all ages).
As for `O=NN(CCCl)C(=O)NCCCl` [BCNU (carmustine)], in data set [2] (Grade III-IV), the Nausea/Vomiting entry was “Nausea/Vomiting 5%” and the Thrombocytopenia entry is recorded as “Thrombocytopenia 21%”. Also, the Leukopenia result in data set [2] (Grade III) is on record as “Grade III 4%”. Further, the Leukopenia entry in [2] (Grade IV) was “Grade IV 1%”.
For the molecule Denileukin diftitox, in data set [2] (setting [9]), the Leukopenia entry is on record as “Leukopenia 6%” and the Neutropenia entry was “Neutropenia 3%”. In data set [2] (setting [10]), the “Constitutional Symptoms” value is listed as “Symptoms 37-47%”, the Gastrointestinal result is “Gastrointestinal 20-36%”, the Infection result is “Infection 33-43%” and the “Infusion-Related Events: Back Pain” value is “Back Pain 6-11%”. Also, in data set [2] (setting [10]), the “Infusion-Related Events: Chest Pain/Tightness” value is “Tightness 9%”, the “Infusion-Related Events: Dyspnea” value is “Dyspnea 6-11%”, the “Infusion-Related Events: Hypotension” value is “Hypotension 8-11%” and the “Infusion-Related Events: Pruritis” value is given as “Pruritis 6%”. Moreover, in data set [2] (setting [10]), the “Infusion-Related Events: Vasodilation” value is “Vasodilation 3%”, the Rash result is “Rash 19-23%”, the “Right Heart Failure” value is on record as “Right Heart Failure 3-6%” and the “Thrombotic Events” value is listed as “Thrombotic Events 3-8%”. Besides, the “Vascular Leak Syndrome” value in [2] (setting [10]) was “Syndrome 17-25%”. For the same molecule, in [2] (setting [11]), the Leukopenia result is listed as “Leukopenia 3%” and the Neutropenia entry is reported as “Neutropenia 3%”.
As to Alemtuzumab, in data set [2] (Grade III-IV), the “Anemia Grade III-IV” value was 38%, the Bronchitis/Pneumonitis is 13%, the Dyspnea entry is recorded as “Dyspnea 9%” and the Fatigue entry was “Fatigue 5%”. In [2] (Grade III-IV), the Fever entry was “Fever 19%”, the Hypotension result is “Hypotension 5%”, the Neutropenia is listed as 64% and the Pneumonia entry is recorded as “Pneumonia 10%”. Moreover, in data set [2] (Grade III-IV), the Rigors result was “Rigors 16%”, the Sepsis result is given as “Sepsis 10%”, the Thrombocytopenia result is reported as “Thrombocytopenia 50%” and the Urticaria entry is “Urticaria 5%”.
Turning to `Nc1ccn([C@@H]2O[C@H](CO)[C@@H](O)[C@@H]2O)c(=O)n1` [Cytarabine], the “CNS Toxicities” value in data set [2] (human, in vivo, iv) is on record as “CNS Toxicities 12%”; in [2] (human, in vivo), “(32% with age >60 yrs)”.
